The text below walks through data of patent US20250236608A1, “EGFR INHIBITORS” (Blueprint Medicines Corporation, priority 2022, published 2025).

For one assay, the target named is EGFR L858R (Homo sapiens (Human), UniProt P00533, L858R). Description: Biochemical EGFR inhibition assay, EGFR L858R. Conditions: Caliper mobility shift; 1.0 mM ATP or ATP Km; read-out: Enz EGFR_L858R IC50.
For assay [1], the target named is pEGFR (Tyr1068) in PC-9 cells (Ex19Del) (Homo sapiens (Human), UniProt P00533, DEL746-750). Kind of assay: PC-9 pEGFR AlphaLISA assay. The class given is cell-based. Conditions: 4 hours incubation, p-EGFR (Tyr1068) AlphaLISA, read-out: Ext pEGFR_PC-9 Ex19Del IC50. A digest of the protocol:
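Phospho-EGFR (Tyr1068) was quantified by AlphaLISA SureFire Ultra in lysates of PC-9 cells exposed for 4 h to compound (4-fold, 10-point dilutions).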
On the technique in general: In Alpha technology, singlet oxygen from a donor bead excites a nearby acceptor bead.

In the next assay the target is EGFR (d746-750) (Homo sapiens (Human), UniProt P00533, DEL746-750). Kind of assay: Biochemical EGFR inhibition assay, EGFR (d746-750). Conditions: Caliper mobility shift; 1.0 mM ATP or ATP Km; read-out: Enz EGFR_Exon19-del746-750 IC50.
EGFR (d746-750), sequence (P00533 other isoform, or with tags, fused parts or gaps del 1-694/del 746-750 limits assumed): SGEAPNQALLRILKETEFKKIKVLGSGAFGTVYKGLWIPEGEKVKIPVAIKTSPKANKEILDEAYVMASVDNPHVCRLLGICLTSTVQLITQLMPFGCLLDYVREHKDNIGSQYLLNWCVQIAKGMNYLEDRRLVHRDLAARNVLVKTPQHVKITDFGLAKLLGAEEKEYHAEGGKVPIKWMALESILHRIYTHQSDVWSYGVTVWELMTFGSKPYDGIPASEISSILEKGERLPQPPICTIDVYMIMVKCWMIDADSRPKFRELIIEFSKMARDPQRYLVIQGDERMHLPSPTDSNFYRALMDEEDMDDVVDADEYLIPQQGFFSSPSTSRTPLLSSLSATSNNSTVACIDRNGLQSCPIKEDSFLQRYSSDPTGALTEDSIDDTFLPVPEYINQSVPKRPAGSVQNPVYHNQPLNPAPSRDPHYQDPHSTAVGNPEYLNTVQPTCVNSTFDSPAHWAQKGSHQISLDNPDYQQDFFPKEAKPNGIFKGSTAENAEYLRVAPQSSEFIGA

pEGFR (Tyr1068) in PC-9 cells (Ex19Del), sequence (P00533 other isoform, or with tags, fused parts or gaps del 746-750): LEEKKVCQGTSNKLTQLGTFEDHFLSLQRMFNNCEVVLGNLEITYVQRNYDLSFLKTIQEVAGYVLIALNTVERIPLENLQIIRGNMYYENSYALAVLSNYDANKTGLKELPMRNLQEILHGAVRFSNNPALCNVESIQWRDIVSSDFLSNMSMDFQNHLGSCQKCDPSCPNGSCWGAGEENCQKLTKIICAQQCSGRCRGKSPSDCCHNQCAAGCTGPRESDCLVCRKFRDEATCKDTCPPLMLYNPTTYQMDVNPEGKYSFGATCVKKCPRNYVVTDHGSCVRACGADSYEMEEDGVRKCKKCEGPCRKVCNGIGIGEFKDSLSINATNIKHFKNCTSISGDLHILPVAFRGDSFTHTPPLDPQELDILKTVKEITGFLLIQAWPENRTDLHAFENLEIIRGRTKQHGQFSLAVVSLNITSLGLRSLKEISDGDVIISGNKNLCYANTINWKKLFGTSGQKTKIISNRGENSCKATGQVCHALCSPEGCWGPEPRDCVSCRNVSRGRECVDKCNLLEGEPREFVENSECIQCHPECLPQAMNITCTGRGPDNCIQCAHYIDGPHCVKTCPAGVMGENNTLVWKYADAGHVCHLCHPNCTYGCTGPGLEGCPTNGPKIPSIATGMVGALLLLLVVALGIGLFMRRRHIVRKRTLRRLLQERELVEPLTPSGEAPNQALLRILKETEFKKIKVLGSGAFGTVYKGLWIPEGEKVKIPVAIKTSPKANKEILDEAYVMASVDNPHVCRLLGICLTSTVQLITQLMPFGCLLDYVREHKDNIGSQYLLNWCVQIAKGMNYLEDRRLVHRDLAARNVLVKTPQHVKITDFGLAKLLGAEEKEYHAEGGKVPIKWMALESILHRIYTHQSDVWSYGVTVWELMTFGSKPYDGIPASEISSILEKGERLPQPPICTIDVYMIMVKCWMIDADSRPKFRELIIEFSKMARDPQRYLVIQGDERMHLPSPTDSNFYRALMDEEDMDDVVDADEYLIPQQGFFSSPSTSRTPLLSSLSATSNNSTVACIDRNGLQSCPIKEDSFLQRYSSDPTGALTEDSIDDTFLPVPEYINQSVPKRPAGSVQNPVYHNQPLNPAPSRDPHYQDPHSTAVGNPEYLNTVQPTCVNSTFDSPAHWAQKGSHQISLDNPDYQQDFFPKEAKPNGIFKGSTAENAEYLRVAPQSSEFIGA
EGFR L858R, sequence (P00533 25-1210 L858R): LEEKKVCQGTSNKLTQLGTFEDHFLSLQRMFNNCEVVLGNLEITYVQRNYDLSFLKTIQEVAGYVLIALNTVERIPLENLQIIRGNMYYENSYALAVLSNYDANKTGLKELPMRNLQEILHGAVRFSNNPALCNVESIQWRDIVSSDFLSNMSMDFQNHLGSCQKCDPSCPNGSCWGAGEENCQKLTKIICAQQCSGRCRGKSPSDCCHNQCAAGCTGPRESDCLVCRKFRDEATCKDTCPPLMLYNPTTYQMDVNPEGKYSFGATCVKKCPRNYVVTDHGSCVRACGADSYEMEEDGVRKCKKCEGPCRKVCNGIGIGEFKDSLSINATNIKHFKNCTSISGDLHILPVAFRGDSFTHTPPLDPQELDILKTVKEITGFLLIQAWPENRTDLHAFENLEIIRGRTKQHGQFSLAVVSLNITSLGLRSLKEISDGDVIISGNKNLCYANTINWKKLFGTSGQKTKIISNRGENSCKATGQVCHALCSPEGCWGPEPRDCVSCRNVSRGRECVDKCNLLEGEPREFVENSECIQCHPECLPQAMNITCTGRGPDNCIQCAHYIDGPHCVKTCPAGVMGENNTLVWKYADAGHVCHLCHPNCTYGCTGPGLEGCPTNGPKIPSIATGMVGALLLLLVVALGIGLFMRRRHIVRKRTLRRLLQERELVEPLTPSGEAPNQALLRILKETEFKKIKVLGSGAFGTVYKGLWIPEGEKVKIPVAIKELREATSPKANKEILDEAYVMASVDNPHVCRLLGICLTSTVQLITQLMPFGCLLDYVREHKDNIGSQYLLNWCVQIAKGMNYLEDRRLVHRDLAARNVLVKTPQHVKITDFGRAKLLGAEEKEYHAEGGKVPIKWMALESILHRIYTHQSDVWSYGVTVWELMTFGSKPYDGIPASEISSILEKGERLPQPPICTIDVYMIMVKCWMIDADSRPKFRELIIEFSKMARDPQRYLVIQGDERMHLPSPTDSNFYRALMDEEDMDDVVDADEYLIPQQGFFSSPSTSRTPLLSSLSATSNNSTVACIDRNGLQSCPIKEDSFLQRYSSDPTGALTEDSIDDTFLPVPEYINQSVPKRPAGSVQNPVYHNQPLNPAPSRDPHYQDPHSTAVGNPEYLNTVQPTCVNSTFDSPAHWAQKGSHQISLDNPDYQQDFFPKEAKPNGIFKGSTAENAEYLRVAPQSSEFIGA

One may read the IC50 as the midpoint of a concentration-inhibition curve. On to `CCOc1cc2ncnc(-c3cn(C)nc3-c3ccc(F)cc3)c2nc1NC(=O)[C@@]12C[C@@H]1CN(C)C2` (single isomer, unassigned) [Example 375, (1S,5S)—N-(7-ethoxy-4-(3-(4-fluorophenyl)-1-methyl-1H-pyrazol-4-yl)pyrido[3,2-d]pyrimidin-6-yl)-3-methyl-3-azabicyclo[3.1.0]hexane-1-carboxamide or (1R,5R)—N-(7-ethoxy-4-(3-(4-fluorophenyl)-1-methyl-1H-pyrazol-4-yl)pyrido[3,2-d]pyrimidin-6-yl)-3-methyl-3-azabicyclo[3.1.0]hexane-1-carboxamide], for which the half-inhibitory concentration (IC50) on EGFR L858R is 2.4 nM; in assay [1] it was 2.5 nM; at EGFR (d746-750), 0.9 nM.
For `CCOc1cc2ncnc(-c3cn(C)nc3-c3ccccc3)c2cc1N1CC2CC(C1)O2` [Example 167, 3-(7-ethoxy-4-(1-methyl-3-phenyl-1H-pyrazol-4-yl)quinazolin-6-yl)-6-oxa-3-azabicyclo[3.1.1]heptane], in that order: 1.9 nM, 1.7 nM and 1.1 nM.
For `COc1cc2ncnc(-c3cn(C)nc3-c3ccccc3)c2cc1NC(=O)[C@H](C)N(C)C` (single isomer, unassigned) [Example 236, (S)-2-(dimethylamino)-N-(7-methoxy-4-(1-methyl-3-phenyl-1H-pyrazol-4-yl)quinazolin-6-yl) propenamide or (R)-2-(dimethylamino)-N-(7-methoxy-4-(1-methyl-3-phenyl-1H-pyrazol-4-yl)quinazolin-6-yl) propenamide], in that order: 3.8 nM, 3.9 nM and 1.4 nM.
For `CCOc1cc2ncnc(-c3cn(CC)nc3-c3ccccc3)c2cc1[C@@H](C)O` (single isomer, unassigned) [Example 108, (R)-1-(7-ethoxy-4-(1-ethyl-3-phenyl-1H-pyrazol-4-yl)quinazolin-6-yl)ethan-1-ol or (S)-1-(7-ethoxy-4-(1-ethyl-3-phenyl-1H-pyrazol-4-yl)quinazolin-6-yl)ethan-1-ol], in that order: 1.3 nM, 2.7 nM and 0.9 nM.
In the case of `CCc1nc2c(-c3cn(C)nc3-c3ccccc3)ncnc2cc1OC` [Example 136, 6-ethyl-7-methoxy-4-(1-methyl-3-phenyl-1H-pyrazol-4-yl)pyrido[3,2-d]pyrimidine], the IC50 was found to be 0.8 nM at EGFR L858R, 1.3 nM in assay [1] and 0.4 nM at EGFR (d746-750).
In the case of `COc1cc2ncnc(-c3cn(C)nc3-c3ccccc3)c2cc1NC(=O)c1ccncc1C` [Example 191, N-(7-methoxy-4-(1-methyl-3-phenyl-1H-pyrazol-4-yl)quinazolin-6-yl)-3-methylisonicotinamide], the figures for the IC50 (at EGFR L858R; in assay [1]; at EGFR (d746-750)) were 3.8 nM, 6.4 nM and 1.8 nM, respectively.
In the same order, the values of `CCC(=O)Nc1cc2c(-c3cn(C4CCOCC4)nc3-c3ccccc3)ncnc2cc1OC` [Example 248, N-(7-methoxy-4-(3-phenyl-1-(tetrahydro-2H-pyran-4-yl)-1H-pyrazol-4-yl)quinazolin-6-yl)propionamide] are 2 nM, 1.3 nM and 1.5 nM.
For `COc1cc2ncnc(-c3cn(C)nc3-c3ccccc3)c2cc1-c1cccc(C(=O)NC2CC2)c1` [Example 142, N-cyclopropyl-3-(7-methoxy-4-(1-methyl-3-phenyl-1H-pyrazol-4-yl)quinazolin-6-yl)benzamide], in that order: 3.2 nM, 7.1 nM and 2.8 nM.
In the same order, the values of `CCn1cc(-c2ncnc3cc(OC)c(NC(=O)[C@@]45COC[C@@H]4C5)cc23)c(-c2ccccc2)n1` [Example 288, (1R,5R)—N-(4-(1-ethyl-3-phenyl-1H-pyrazol-4-yl)-7-methoxyquinazolin-6-yl)-3-oxabicyclo[3.1.0]hexane-1-carboxamide] are 1.9 nM, 2 nM and 1.2 nM.
For the compound `COc1cc2ncnc(-c3cn(C)nc3-c3ccccc3)c2cc1OC(=O)N1[C@@H](C)COC[C@@H]1C` [Example 64, 7-methoxy-4-(1-methyl-3-phenyl-1H-pyrazol-4-yl)quinazolin-6-yl (3S,5S)-3,5-dimethylmorpholine-4-carboxylate], the values for the IC50 (on EGFR L858R; in assay [1]; on EGFR (d746-750)) were 6.1 nM, 13.7 nM and 2.1 nM, respectively.
For `CCOc1cc2ncnc(-c3cn(C)nc3-c3ccccc3)c2cc1NC(=O)[C@]12COC[C@H]1C2` [Example 291, (1S,5S)—N-(7-ethoxy-4-(1-methyl-3-phenyl-1H-pyrazol-4-yl)quinazolin-6-yl)-3-oxabicyclo[3.1.0]hexane-1-carboxamide], in that order: 1.6 nM, 1.7 nM and 1 nM.
For `COc1cc2ncnc(-c3cn(C)nc3-c3ccccc3)c2cc1OC(=O)N1CCOC(C)(C)C1` [Example 80, 7-methoxy-4-(1-methyl-3-phenyl-1H-pyrazol-4-yl)quinazolin-6-yl 2,2-dimethylmorpholine-4-carboxylate], in that order: 6 nM, 9.6 nM and 3.1 nM.
`CCn1cc(-c2ncnc3cc(OC)c(NC(=O)[C@]45C[C@H]4CN(C)C5)nc23)c(-c2ccc(F)cc2)n1` (single isomer, unassigned) [Example 399, (1R,5R)—N-(4-(1-ethyl-3-(4-fluorophenyl)-1H-pyrazol-4-yl)-7-methoxypyrido[3,2-d]pyrimidin-6-yl)-3-methyl-3-azabicyclo[3.1.0]hexane-1-carboxamide or (1S,5S)—N-(4-(1-ethyl-3-(4-fluorophenyl)-1H-pyrazol-4-yl)-7-methoxypyrido[3,2-d]pyrimidin-6-yl)-3-methyl-3-azabicyclo[3.1.0]hexane-1-carboxamide]: the IC50 is 1.2 nM at EGFR L858R, 1.3 nM in assay [1] and 0.9 nM on EGFR (d746-750).
For `COc1cc2ncnc(-c3cn(C)nc3-c3ccccc3)c2cc1OC1CCOCC1` [Example 14, 7-methoxy-4-(1-methyl-3-phenyl-1H-pyrazol-4-yl)-6-((tetrahydro-2H-pyran-4-yl)oxy)quinazoline], in that order: 3.6 nM, 5 nM and 2 nM.
For the compound `CCCn1cc(-c2ncnc3cc(OC)c(NC(=O)c4ccc(C5CC5)nc4)cc23)c(-c2ccccc2)n1` [Example 301, 6-cyclopropyl-N-(7-methoxy-4-(3-phenyl-1-propyl-1H-pyrazol-4-yl)quinazolin-6-yl)nicotinamide], the 50% inhibitory concentration (IC50) is 2.7 nM at EGFR L858R, 0.8 nM in assay [1] and 2 nM at EGFR (d746-750).
With `COc1cc2ncnc(-c3cn(C)nc3-c3ccccc3)c2cc1NC(=O)c1ccn(C(C)C)n1` [Example 205, 1-isopropyl-N-(7-methoxy-4-(1-methyl-3-phenyl-1H-pyrazol-4-yl)quinazolin-6-yl)-1H-pyrazole-3-carboxamide], the IC50 on EGFR L858R was found to be 1.2 nM; in assay [1] it was 0.8 nM; on EGFR (d746-750) it was 0.8 nM.
Consider `COc1cc2ncnc(-c3cn(C)nc3-c3ccccc3)c2cc1NC(=O)c1ccnc(C)c1` [Example 194, N-(7-methoxy-4-(1-methyl-3-phenyl-1H-pyrazol-4-yl)quinazolin-6-yl)-2-methylisonicotinamide], for which the IC50 at EGFR L858R was determined as 1.4 nM; in assay [1] it was 1.7 nM; at EGFR (d746-750), 0.7 nM.
Regarding `CCOc1cc2ncnc(-c3cn(C)nc3-c3ccccc3)c2cc1N1CCOCC1` [Example 163, 4-(7-ethoxy-4-(1-methyl-3-phenyl-1H-pyrazol-4-yl)quinazolin-6-yl)morpholine], the values for the IC50 (on EGFR L858R; in assay [1]; at EGFR (d746-750)) were 3.6 nM, 5.5 nM and 1.4 nM, respectively.
In the same order, the values of `COc1cc2ncnc(-c3cn(C)nc3-c3ccccc3)c2cc1OC(=O)N1CCN(C)C(C)(C)C1` [Example 77, 7-methoxy-4-(1-methyl-3-phenyl-1H-pyrazol-4-yl)quinazolin-6-yl 3,3,4-trimethylpiperazine-1-carboxylate] are 7.2 nM, 9.7 nM and 3.5 nM.
For `COc1cc2ncnc(-c3cn(C)nc3-c3ccccc3F)c2cc1NC(=O)c1ccc(C2CC2)nc1` [Example 230, 6-cyclopropyl-N-(4-(3-(2-fluorophenyl)-1-methyl-1H-pyrazol-4-yl)-7-methoxyquinazolin-6-yl) nicotinamide], in that order: 1.5 nM, 2.3 nM and 0.9 nM.
Regarding `COc1cc2ncnc(-c3cn(C)nc3-c3ccccc3)c2cc1OC(=O)N1CCOCC12CC2` [Example 65, 7-methoxy-4-(1-methyl-3-phenyl-1H-pyrazol-4-yl)quinazolin-6-yl 7-oxa-4-azaspiro[2.5]octane-4-carboxylate], the IC50 stood at 6.1 nM on EGFR L858R, 2.5 nM in assay [1] and 2.5 nM at EGFR (d746-750).
As for `COc1cc2ncnc(-c3cn(C)nc3-c3c(F)cccc3F)c2cc1OC(=O)N1CCOC[C@@H]1C` [Example 67, 4-(3-(2,6-difluorophenyl)-1-methyl-1H-pyrazol-4-yl)-7-methoxyquinazolin-6-yl (S)-3-methylmorpholine-4-carboxylate], the values for the IC50 (at EGFR L858R; in assay [1]; at EGFR (d746-750)) were 8.3 nM, 12.4 nM and 2.8 nM, respectively.
In the same order, the values of `COc1cc2ncnc(-c3cn(C)nc3-c3ccccc3)c2cc1N1CC2(COC2)C1` [Example 161, 6-(7-methoxy-4-(1-methyl-3-phenyl-1H-pyrazol-4-yl)quinazolin-6-yl)-2-oxa-6-azaspiro[3.3]heptane] are 4.6 nM, 8.1 nM and 2.5 nM.
